Experimental data published in patent publication US7196110B2, “N-substituted tricyclic 3-aminopyrazoles as inhibitors for the treatment of cell proliferative disorders” (Janssen Phamaceutica N.V., priority 2002, dated 2007).

Target: T1, PDGF-receptor beta enzyme comprising the tyrosine kinase domain (Homo sapiens, UniProt P09619)
T1 construct: from amino acid 545 to 1106 of GenBank Access NO: AAA36427
Experiment: Inhibition of PDGF-receptor kinase activity (cell-free, PLC1 peptide, 33P Flashplate)
Type: biochemical
Conditions: PDGF-R kinase activity; for inhibition at 10 µM: compound at 10 uM, read-out: Percent Inhibition @ 10 uM; for IC50: read-out: IC50
Outline: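 The IC50 is the inhibitor level halving kinase activity relative to inhibitor-free wells, measured as 33P captured on a streptavidin-bound biotin-PLC1 peptide. The reaction ran 60 min at 30 °C in pH 8 Tris buffer with 1 mM DTT, 5 μM ATP and the 545–1106 kinase-domain enzyme.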

T1 sequence (P09619 545-1106): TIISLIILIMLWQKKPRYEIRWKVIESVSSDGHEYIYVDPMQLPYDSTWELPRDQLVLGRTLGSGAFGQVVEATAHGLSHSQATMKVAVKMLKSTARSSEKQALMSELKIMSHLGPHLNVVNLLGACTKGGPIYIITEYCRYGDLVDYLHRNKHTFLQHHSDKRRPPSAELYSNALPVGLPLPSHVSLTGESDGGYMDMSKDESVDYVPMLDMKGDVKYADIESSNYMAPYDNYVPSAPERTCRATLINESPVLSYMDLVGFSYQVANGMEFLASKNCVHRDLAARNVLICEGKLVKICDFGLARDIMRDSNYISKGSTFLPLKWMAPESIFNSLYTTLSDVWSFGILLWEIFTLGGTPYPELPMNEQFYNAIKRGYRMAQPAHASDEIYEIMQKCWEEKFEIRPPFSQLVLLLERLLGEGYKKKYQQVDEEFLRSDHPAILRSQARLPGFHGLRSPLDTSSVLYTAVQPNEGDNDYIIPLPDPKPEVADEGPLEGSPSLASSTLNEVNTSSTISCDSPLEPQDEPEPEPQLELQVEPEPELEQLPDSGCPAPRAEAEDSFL

SMILES	inhibition at 10 µM	IC50
COc1cc2c(cc1OC)-c1c(c(Nc3cccc(F)c3)nn1C(=O)OCCOCc1ccccc1)C2 [Compound 470, 3-(3-Fluoro-phenylamino)-6,7-dimethoxy-4H-indeno[1,2-c]pyrazole-1-carboxylic acid 2-benzyloxy-ethyl ester]	96%	197 nM
COCn1nc2c(c1Nc1cccc(F)c1)Cc1cc(OC)c(OC)cc1-2 [Compound 475, (6,7-Dimethoxy-2-methoxymethyl-2,4-dihydro-indeno[1,2-c]pyrazol-3-yl)-(3-fluoro-phenyl)-amine]	65.5%	5030 nM
Brc1cccc(Nc2[nH]nc3c2Cc2c(OCCN4CCCC4)cccc2-3)c1 [Compound 478, (3-Bromo-phenyl)-[5-(2-pyrrolidin-1-yl-ethoxy)-2,4-dihydro-indeno[1,2-c]pyrazol-3-yl]-amine]	93.5%	162 nM
COc1cc2c(cc1OC)-c1c(c(Nc3cccc(F)c3)nn1C(=O)c1ccccc1F)C2 [Compound 481, (2-Fluoro-phenyl)-[3-(3-fluoro-phenylamino)-6,7-dimethoxy-4H-indeno[1,2-c]pyrazol-1-yl]-methanone]	59%	3760 nM
COc1cc2c(cc1OC)C(C)(C)c1c-2n[nH]c1Nc1cccc(Br)c1 [Compound 485, (3-Bromo-phenyl)-(6,7-dimethoxy-4,4-dimethyl-2,4-dihydro-indeno[1,2-c]pyrazol-3-yl)-amine]	32%	59000 nM
COc1cc2c(cc1OC)C(C)(C)c1c-2n[nH]c1Nc1cccc(F)c1 [Compound 487, (6,7-Dimethoxy-4,4-dimethyl-2,4-dihydro-indeno[1,2-c]pyrazol-3-yl)-(3-fluoro-phenyl)-amine]	43%	37500 nM
COc1cccc(Nc2[nH]nc3c2C(C)(C)c2cc(OC)c(OC)cc2-3)c1 [Compound 488, (6,7-Dimethoxy-4,4-dimethyl-2,4-dihydro-indeno[1,2-c]pyrazol-3-yl)-(3-methoxy-phenyl)-amine]	33.5%	39300 nM
CCOc1cccc(Nc2[nH]nc3c2C(C)(C)c2cc(OC)c(OC)cc2-3)c1 [Compound 489, (6,7-Dimethoxy-4,4-dimethyl-2,4-dihydro-indeno[1,2-c]pyrazol-3-yl)-(3-ethoxy-phenyl)-amine]	25.5%	
COc1cc2c(cc1OC)-c1c(c(Nc3cccc(F)c3)nn1COC(C)=O)C2 [Compound 496, Acetic acid 3-(3-fluoro-phenylamino)-6,7-dimethoxy-4H-indeno[1,2-c]pyrazol-1-ylmethyl ester]	88.5%	13.6 nM
COc1cc2c(cc1OC)-c1nn(Cc3ccc(OC(C)=O)cc3)c(Nc3cccc(F)c3)c1C2 [Compound 499, Acetic acid 4-[3-(3-fluoro-phenylamino)-6,7-dimethoxy-4H-indeno[1,2-c]pyrazol-2-ylmethyl]-phenyl ester]	87%	1740 nM
COc1cc2c(cc1OC)-c1c(c(Nc3cccc(F)c3)nn1C(=O)Oc1ccc(F)cc1)C2 [Compound 500, 3-(3-Fluoro-phenylamino)-6,7-dimethoxy-4H-indeno[1,2-c]pyrazole-1-carboxylic acid 4-fluoro-phenyl ester]	80.5%	492 nM
COc1cc2c(cc1OC)-c1c(c(Nc3cccc(F)c3)nn1C(=O)Oc1ccc(Cl)cc1)C2 [Compound 501, 3-(3-Fluoro-phenylamino)-6,7-dimethoxy-4H-indeno[1,2-c]pyrazole-1-carboxylic acid 4-chloro-phenyl ester]	90%	96 nM
CCOc1cccc(Nc2[nH]nc3c2C(C)c2cc(OCC)c(OCC)cc2-3)c1 (stereo not drawn) [Compound 504, (6,7-Diethoxy-4-methyl-2,4-dihydro-indeno[1,2-c]pyrazol-3-yl)-(3-ethoxy-phenyl)-amine]	101%	142 nM
CCOc1cccc(Nc2[nH]nc3c2C(CC)c2cc(OC)c(OC)cc2-3)c1 (stereo not drawn) [Compound 505, (3-Ethoxy-phenyl)-(4-ethyl-6,7-dimethoxy-2,4-dihydro-indeno[1,2-c]pyrazol-3-yl)-amine]	97%	134 nM
CNC(=O)CCCC(=O)n1nc(Nc2cccc(F)c2)c2c1-c1cc(OC)c(OC)cc1C2 [Compound 506, 5-[3-(3-Fluoro-phenylamino)-6,7-dimethoxy-4H-indeno[1,2-c]pyrazol-1-yl]-5-oxo-pentanoic acid methylamide]	97%	29.4 nM

Results, then the molecule that gave them:

inhibition at 10 µM	IC50	SMILES
99%	2.15 nM	CCOc1cc2c(cc1OCC(O)CN1CCCC1)-c1n[nH]c(Nc3cccc(OC)c3)c1C2 (stereo not drawn) [Compound 462, 1-[6-Ethoxy-3-(3-methoxy-phenylamino)-2,4-dihydro-indeno[1,2-c]pyrazol-7-yloxy]-3-pyrrolidin-1-yl-propan-2-ol]
92%	245 nM	COC(=O)CCCC(=O)n1nc(Nc2cccc(F)c2)c2c1-c1cc(OC)c(OC)cc1C2 [Compound 464, 5-[3-(3-Fluoro-phenylamino)-6,7-dimethoxy-4H-indeno[1,2-c]pyrazol-1-yl]-5-oxo-pentanoic acid methyl ester]
35%		COCn1nc(Nc2cccc(F)c2)c2c1-c1cc(OC)c(OC)cc1C2 [Compound 472, (6,7-Dimethoxy-1-methoxymethyl-1,4-dihydro-indeno[1,2-c]pyrazol-3-yl)-(3-fluoro-phenyl)-amine]
98.5%	8.96 nM	COCC(=O)OCC(=O)n1nc(Nc2cccc(F)c2)c2c1-c1cc(OC)c(OC)cc1C2 [Compound 473, Methoxy-acetic acid 2-[3-(3-fluoro-phenylamino)-6,7-dimethoxy-4H-indeno[1,2-c]pyrazol-1-yl]-2-oxo-ethyl ester]
91.5%	63.4 nM	COc1cc2c(cc1OC)-c1c(c(Nc3cccc(F)c3)nn1C(=O)COC(=O)C(C)C)C2 [Compound 474, Isobutyric acid 2-[3-(3-fluoro-phenylamino)-6,7-dimethoxy-4H-indeno[1,2-c]pyrazol-1-yl]-2-oxo-ethyl ester]
88.5%	250 nM	COc1cc2c(cc1OC)-c1n[nH]c(Nc3c(F)cccc3F)c1C2 [Compound 476, (2,6-Difluoro-phenyl)-(6,7-dimethoxy-2,4-dihydro-indeno[1,2-c]pyrazol-3-yl)-amine]
95%	229 nM	COc1cc2c(cc1OC)-c1n[nH]c(Nc3c(F)cc(F)cc3F)c1C2 [Compound 477, (6,7-Dimethoxy-2,4-dihydro-indeno[1,2-c]pyrazol-3-yl)-(2,4,6-trifluoro-phenyl)-amine]
94.5%	624 nM	OCC(O)COc1cccc2c1Cc1c-2n[nH]c1NCc1c(Cl)cccc1Cl (stereo not drawn) [Compound 479, 3-[3-(2,6-Dichloro-benzylamino)-2,4-dihydro-indeno[1,2-c]pyrazol-5-yloxy]-propane-1,2-diol]
8%		COc1cc2c(cc1OC)-c1c(c(Nc3cccc(F)c3)nn1C(=O)c1c(F)cccc1F)C2 [Compound 480, (2,6-Difluoro-phenyl)-[3-(3-fluoro-Phenylamino)-6,7-dimethoxy-4H-indeno[1,2-c]pyrazol-1-yl]-methanone]
87%	218 nM	COc1cc2c(cc1OC)-c1c(c(Nc3cccc(F)c3)nn1CC(C)=O)C2 [Compound 484, 1-[3-(3-Fluoro-phenylamino)-6,7-dimethoxy-4H-indeno[1,2-c]pyrazol-1-yl]-propan-2-one]
34.5%	15800 nM	COc1cc2c(cc1OC)C(C)(C)c1c-2n[nH]c1Nc1cccc(Cl)c1 [Compound 486, (3-Chloro-phenyl)-(6,7-dimethoxy-4,4-dimethyl-2,4-dihydro-indeno[1,2-c]pyrazol-3-yl)-amine]
92%	314 nM	CCCC(=O)OCn1nc2c(c1Nc1cccc(F)c1)Cc1cc(OC)c(OC)cc1-2 [Compound 491, Butyric acid 3-(3-fluoro-phenylamino)-6,7-dimethoxy-4H-indeno[1,2-c]pyrazol-2-ylmethyl ester]
78%	472 nM	COc1cc2c(cc1OC)-c1c(c(Nc3cccc(F)c3)nn1C(=O)c1ccc(F)cc1)C2 [Compound 492, (4-Fluoro-phenyl)-[3-(3-fluoro-phenylamino)-6,7-dimethoxy-4H-indenol[1,2-c]pyrazol-1-yl]-methanone]
83%	1540 nM	COc1cc2c(cc1OC)-c1c(c(Nc3cccc(F)c3)nn1C(=O)c1ccc(Cl)cc1)C2 [Compound 494, (4-Chloro-phenyl)-[3-(3-fluoro-phenylamino)-6,7-dimethoxy-4H-indeno[1,2-c]pyrazol-1-yl]-methanone]
97%	77.7 nM	COc1cc2c(cc1OC)-c1nn(COC(C)=O)c(Nc3cccc(F)c3)c1C2 [Compound 497, Acetic acid 3-(3-fluoro-phenylamino)-6,7-dimethoxy-4H-indeno[1,2-c]pyrazol-2-ylmethyl ester]
51.5%	8330 nM	COc1cc2c(cc1OC)-c1c(c(Nc3cccc(F)c3)nn1Cc1ccc(OC(C)=O)cc1)C2 [Compound 498, Acetic acid 4-[3-(3-fluoro-phenylamino)-6,7-dimethoxy-4H-indeno[1,2-c]pyrazol-1-ylmethyl]-phenyl ester]
60.5%	54000 nM	COc1cc2c(cc1OC)-c1c(c(Nc3cccc(F)c3)nn1CC(C)O)C2 (stereo not drawn) [Compound 502, 1-[3-(3-Fluoro-phenylamino)-6,7-dimethoxy-4H-indeno[1,2-c]pyrazol-1-yl]-propan-2-ol]
103%	45.1 nM	COc1cc2c(cc1OC)-c1nn(C(=O)Oc3ccc(F)cc3)c(Nc3cccc(F)c3)c1C2 [Compound 503, 3-(3-Fluoro-phenylamino)-6,7-dimethoxy-4H-indeno[1,2-c]pyrazole-2-carboxylic acid 4-fluoro-phenyl ester]
